The values that follow come from patent publication US20260116892A1, “CRYSTAL FORM OF COMPOUND AND PREPARATION METHOD THEREFOR” (NANJING INNOCARE PHARMA TECH CO., LTD., priority 2022, published 2026).

Holding throughout (format): physicochemical
Data set [1] is described as follows: Suspension competition experiment between the crystalline forms in solution. To be noted: equal amount of forms A/B in saturated solution of isopropyl alcohol and water, room temperature, stirring 2 days. As to the method:
The transformation relationship between the crystalline forms was studied by a suspension competition experiment in the solution. The suspension competition between the crystalline form A and the crystalline form B was carried out at room temperature. The crystalline form A was obtained by adding equal amount of the crystalline form A/B to the saturated solution of isopropyl alcohol and water with suspending and stirring for 2 days.

The nature of data set [2]: Hygroscopicity assessment by dynamic vapor sorption (DVS). Particulars: 25° C. The procedure: The “hygroscopicity” described in the present invention refers to the characteristic of the substance's ability or degree of absorbing water under the conditions of certain temperature and humidity. Regarding to the characteristic description of hygroscopicity and the definition of hygroscopic weight gain (performing experiments according to the method of guideline 9103 of Pharmacopoeia of the People's Republic of China (2015) Volume IV. experimental conditions: 25° C.±1° C., 80%±2% of relative humidity):
deliquescence: sufficient water absorption to form a solution; very hygroscopic: hygroscopic weight gain of not less than 15%; phygroscopic: hygroscopic weight gain of less than 15% but not less than 2%; slightly hygroscopic: hygroscopic weight gain of less than 2% but not less than 0.2%; not or almost not hygroscopic: hygroscopic weight gain of less than 0.2%.
The dynamic vapor sorption (DVS) diagram described in the present invention was acquired using an Intrinsic dynamic vapor sorption instrument produced by SMS (Surface Measurement Systems Ltd.). The method parameters of the dynamic vapor sorption described in the present invention are as follows: […]
About 30 mg of the crystalline form A of the present invention was taken and subjected to a dynamic vapor sorption test using a dynamic vapor sorption (DVS). […] The XRPD was measured before and after the test.

Data set [3] in a line: Stability assessment of the crystalline form A (solid, accelerated and 12 months). The text has this: The “stability” described in the present invention refers to that neither degradation of the crystalline form has been found nor transformation to other crystalline form has been detected in the determination of the crystalline form by analytical means such as LC detection, XRPD, etc.
The solid sample of crystalline form A was exposed to high temperature, high humidity and light (open) for au one month accelerated stability study to observe the purity of the sample and the stability of the crystalline form.
The solid sample of crystalline form A was placed under the 30° C./65% RH (closed) for a 12 months stability study to observe the purity of the sample and the stability of the crystalline form (XRPD pattern).

[4] abbreviates: 12 months, 30° C./65% RH (closed).
Setting [5] is: Acceleration for 1 month (25° C., 90% ± 5% RH), open.
[6] abbreviates: Acceleration for 1 month (60° C.), open.
[7] abbreviates: Acceleration for 13 days (10 days of light exposure, 3 days of UV exposure), open.

“Also recorded” adds a separate entry of the source.

Regarding `C[C@H]1CNC(=O)Nc2cnn3ccc(nc23)N2C[C@@H](F)C[C@@H]2c2cc(F)cnc2O1` [crystalline form A, (2^2R,2^4S,5S)-2^4,3^5-difluoro-5-methyl-4-oxa-7,9-diaza-1(5,3)-pyrazolo[1,5-a]pyrimidin-3(3,2)-pyridin-2(1,2)-pyrrolidincyclononan-8-one], the “Thermodynamic stability / transformation in suspension competition” value in data set [1] was “better thermodynamic stability”. Besides, the “Crystalline form before and after DVS test (XRPD)” value in data set [2] (0% RH to 95% RH) is listed as “remained unchanged”. Further, the “Weight gain (DVS)” value in data set [2] (80% relative humidity) stood at 0.46%. Also, the “Purity (%)” value in data set [3] (0 month (start of stability study)) turned out to be 98.9%; in data set [3] (setting [4]) it was 99.4%; in data set [3] (setting [5]), 98.5%; in data set [3] (setting [6]) it was 98.3%; in data set [3] (setting [7]) it was 99.4%. For the same molecule, the “Crystalline form (XRPD)” value in data set [3] (setting [4]), in data set [3] (setting [5]), in data set [3] (setting [6]) and in data set [3] (setting [7]) was “Unchanged” each time. Moreover, the “Stability (conclusion in words)” value in data set [3] (60° C. 1 month, 25° C./90%±5% RH 1 month, light 13 days, 30° C./65% RH 12 months) is on record as “stable state; also recorded: good stability”.
For the molecule `C[C@H]1CNC(=O)Nc2cnn3ccc(nc23)N2C[C@@H](F)C[C@@H]2c2cc(F)cnc2O1` [crystalline form B, (2^2R,2^4S,5S)-2^4,3^5-difluoro-5-methyl-4-oxa-7,9-diaza-1(5,3)-pyrazolo[1,5-a]pyrimidin-3(3,2)-pyridin-2(1,2)-pyrrolidincyclononan-8-one], the “Thermodynamic stability / transformation in suspension competition” value in data set [1] is recorded as “can be transformed into the crystalline form A”.
